Measurements taken from article PMC12652692, “Synthesis and In Vitro Anticancer Evaluation of Novel Phosphonium Derivatives of Chrysin” (International Journal of Molecular Sciences, 2025).

Experiments:
Experiment in all cases: NCI60 five-dose screen
Assay type in all cases: cell-based
T-47D = details: Homo sapiens, T47D, Breast Cancer
Description: (§1) Since all new conjugates (3a–h) had notable antiproliferative activities on several tumor cell lines in the course of the one-dose screening, they were subjected to a five-dose test. […] J. Mol. Sci. 2025, 26, 11063 10 of 10 S.3. NCI60 Screening A detailed description of the NCI screening procedures can also be found on the website of NCI [39], and in our previous work. S.3.1. One-Dose Screen All candidates were examined at first at a single high dose (10 μM) in the full NCI60 cell panel. The value reported for the one-dose test is growth relative to the no-drug control and relative to the time zero number of cells. This made possible the disclosure of both growth inhibition (numbers between 0 and 100) and lethality (numbers less than 0). For example, a value of 100 means no growth inhibition. A value of 20 would mean 80% growth inhibition. A value of 0 means no net growth over the course of the analysis. A value of −20 would mean 20% lethality. A value of −100 means all cells are dead. S.3.2. […] The human tumor cell lines of the cancer screening panel were grown in RPMI 1640 medium containing 5% fetal bovine serum and 2 mM l-glutamine. Characteristically, cells were injected in 96-well microtiter plates in 0.1 mL at plating densities ranging from 5000 to 40,000 cells/well, depending on the doubling time of individual cell lines. After cell inoculation, the microtiter plates were incubated at 37 °C, 5% carbon dioxide, 95% air, and 100% relative humidity for 24 hours before the addition of tested compounds. After 24 hours, 2 plates of each cell line were fixed in situ with Cl3COOH (TCA), to represent a measurement of the cell population for each cell line at the time of drug addition (tz). Tested compounds were solubilized in DMSO at 400-fold the desired final maximum test concentration and stored frozen before application. In the course of the drug addition, an aliquot of frozen concentrate was thawed and diluted to twice the desired final maximum test concentration with a complete medium containing 50 μg mL−1 gentamicin. Additional four, 10-fold or ½ log serial dilutions were produced to furnish a total of five drug concentrations plus control. Aliquots of 0.1 mL of these different drug dilutions were added to the appropriate microtiter wells already containing 0.1 mL of medium, resulting in the required final drug concentrations. Following drug addition, the plates were incubated at 37 °C, 5% carbon dioxide, 95% air, and 100% relative humidity for an additional 48 hours. For adherent cells, the test was finished by the addition of cold Cl3COOH. Cells were fixed in situ by the addition of 50 μL of cold 50% (w/v) Cl3COOH, and incubated at 4 °C for 1 hour. The supernatant was discarded, and the plates were washed with H2O (5×) and dried in air. Sulforhodamine B (SRB) solution (0.1 mL) at 0.4% (w/v) in 1% CH3COOH was added to each well, and plates were incubated at RT for 10 min. After staining, the unbound dye was removed by washing five times with 1% CH3COOH, and the plates were dried in the air. The bound stain is afterward solubilized with a 10 mM trizma base, and the absorbance is read on an automated plate reader at λ = 515 nm. Utilizing the seven absorbance measurements [time zero (tz), control growth (c), and test growth in the presence of the drug at the five concentration levels (ti)], the percentage growth was determined at each of the drug concentration levels. Growth inhibition (%) was calculated as: [(ti − tz)/(c − tz)] × 100, for concentrations where ti ≥ tz (1) [(ti − tz)/(tz)] × 100, for concentrations where ti < tz. (2) Three dose‒response parameters were calculated as follows. GI50 (growth inhibition of 50%) was determined from Equation (3), which is the drug concentration resulting in a 50% reduction in the net protein increase (as measured by SRB staining) in control cells in the course of the drug incubation. [(ti − tz)/(c − tz)] × 100 = 50 (3)

UACC-257 = details: Homo sapiens; UACC-257, Melanoma
Description: as §1

MALME-3M = details: Homo sapiens, Melanoma
Description: as §1

SNB-19 = details: Homo sapiens; SNB-19, CNS Cancer
Description: as §1

COLO 205 = details: Homo sapiens; COLO 205, Colon Cancer
Description: as §1

KM12 = details: Homo sapiens; KM12, Colon Cancer
Description: as §1

HCT-15 = details: Homo sapiens; HCT-15, Colon Cancer
Description: as §1

EKVX = details: Homo sapiens, Non-small-Cell Lung Cancer
Description: as §1

HCC-2998 = details: Homo sapiens; HCC-2998, Colon Cancer
Description: as §1

HOP-62 = details: Homo sapiens; HOP-62, Non-small-Cell Lung Cancer
Description: as §1

CAKI-1 = details: Homo sapiens; CAKI-1, Renal Cancer
Description: as §1

MDA-MB231ATCC = details: Homo sapiens, MDA-MB-231, Breast Cancer
Description: as §1

SK-MEL-5 = details: Homo sapiens; SK-MEL-5, Melanoma
Description: as §1

OVCAR-3 = details: Homo sapiens; OVCAR-3, Ovarian Cancer
Description: as §1

MDA-MB-468 = details: Homo sapiens; MDA-MB-468, Breast Cancer
Description: as §1

DU-145 = details: Homo sapiens; DU-145, Prostate Cancer
Description: as §1

Work on `O=c1cc(-c2ccccc2)oc2cc(OCCCC[P+](c3ccccc3)(c3ccccc3)c3ccccc3)cc(O)c12` [3a] yielded a GI50 (T-47D) of 0.228 µM, a GI50 (UACC-257) of 0.282 µM and a GI50 (MALME-3M) of 0.27 µM. The GI50 (SNB-19) was 0.279 µM, the GI50 (COLO 205) was 1.02 µM and the GI50 (KM12) was 0.401 µM. The GI50 (HCT-15) was 0.628 µM, the GI50 (EKVX) was 0.317 µM and the GI50 (HCC-2998) was 0.345 µM. For the same compound, the GI50 (HOP-62) was 0.48 µM, the GI50 (CAKI-1) was 0.385 µM and the GI50 (MDA-MB231ATCC) was 0.24 µM. The GI50 (SK-MEL-5) was 0.166 µM, the GI50 (OVCAR-3) was 0.368 µM and the GI50 (MDA-MB-468) was 0.128 µM. The GI50 (DU-145) was 0.507 µM.

For `Cc1ccc([P+](CCCCOc2cc(O)c3c(=O)cc(-c4ccccc4)oc3c2)(c2ccc(C)cc2)c2ccc(C)cc2)cc1` [3b], the GI50 (T-47D) was 0.105 µM, the GI50 (UACC-257) was 0.367 µM and the GI50 (MALME-3M) was 0.381 µM. For the same compound, the GI50 (SNB-19) was 0.295 µM, the GI50 (COLO 205) was 0.419 µM and the GI50 (KM12) was 0.16 µM. It also gave a GI50 (HCT-15) of 0.311 µM, a GI50 (EKVX) of 0.275 µM and a GI50 (HCC-2998) of 0.38 µM. For the same compound, the GI50 (HOP-62) was 0.307 µM, the GI50 (CAKI-1) was 0.228 µM and the GI50 (MDA-MB231ATCC) was 0.32 µM. For the same compound, the GI50 (SK-MEL-5) was 0.153 µM, the GI50 (OVCAR-3) was 0.196 µM and the GI50 (MDA-MB-468) was 0.123 µM. For the same compound, the GI50 (DU-145) was 0.223 µM.

`COc1ccc([P+](CCCCOc2cc(O)c3c(=O)cc(-c4ccccc4)oc3c2)(c2ccc(OC)cc2)c2ccc(OC)cc2)cc1` [3c] showed a GI50 (T-47D) of 0.302 µM, a GI50 (UACC-257) of 0.277 µM and a GI50 (MALME-3M) of 0.287 µM. For the same compound, the GI50 (SNB-19) was 0.333 µM, the GI50 (COLO 205) was 0.455 µM and the GI50 (KM12) was 0.207 µM. It also gave a GI50 (HCT-15) of 1.55 µM, a GI50 (EKVX) of 0.462 µM and a GI50 (HCC-2998) of 0.3 µM. The GI50 (HOP-62) was 0.732 µM, the GI50 (CAKI-1) was 1.03 µM and the GI50 (MDA-MB231ATCC) was 0.315 µM. For the same compound, the GI50 (SK-MEL-5) was 0.331 µM, the GI50 (OVCAR-3) was 0.288 µM and the GI50 (MDA-MB-468) was 0.248 µM. It also gave a GI50 (DU-145) of 0.41 µM.

With `O=c1cc(-c2ccccc2)oc2cc(OCCCC[P+](c3ccc(F)cc3)(c3ccc(F)cc3)c3ccc(F)cc3)cc(O)c12` [3d] the GI50 (T-47D) was 1.45 µM, the GI50 (UACC-257) was 1.66 µM and the GI50 (MALME-3M) was 2.04 µM. The GI50 (SNB-19) was 1.67 µM, the GI50 (COLO 205) was 1.62 µM and the GI50 (KM12) was 1.7 µM. For the same compound, the GI50 (HCT-15) was 1.85 µM, the GI50 (EKVX) was 2.23 µM and the GI50 (HCC-2998) was 1.67 µM. The GI50 (HOP-62) was 1.56 µM, the GI50 (CAKI-1) was 1.78 µM and the GI50 (MDA-MB231ATCC) was 1.91 µM. The GI50 (SK-MEL-5) was 1.51 µM, the GI50 (OVCAR-3) was 1.42 µM and the GI50 (MDA-MB-468) was 1.1 µM. The GI50 (DU-145) was 1.72 µM.

`O=c1cc(-c2ccccc2)oc2cc(OCCCC[P+](C3CCCCC3)(C3CCCCC3)C3CCCCC3)cc(O)c12` [3e] showed a GI50 (T-47D) of 0.397 µM, a GI50 (UACC-257) of 0.267 µM and a GI50 (MALME-3M) of 0.397 µM. It also gave a GI50 (SNB-19) of 0.505 µM, a GI50 (COLO 205) of 0.812 µM and a GI50 (KM12) of 0.382 µM. It also gave a GI50 (HCT-15) of 1.55 µM, a GI50 (EKVX) of 1.06 µM and a GI50 (HCC-2998) of 0.504 µM. The GI50 (HOP-62) was 1.56 µM, the GI50 (CAKI-1) was 1.57 µM and the GI50 (MDA-MB231ATCC) was 0.366 µM. For the same compound, the GI50 (SK-MEL-5) was 0.369 µM, the GI50 (OVCAR-3) was 0.381 µM and the GI50 (MDA-MB-468) was 0.273 µM. For the same compound, the GI50 (DU-145) was 1.24 µM.

With `COc1c(C)cc([P+](CCCCOc2cc(O)c3c(=O)cc(-c4ccccc4)oc3c2)(c2cc(C)c(OC)c(C)c2)c2cc(C)c(OC)c(C)c2)cc1C` [3f] the GI50 (T-47D) was 0.121 µM, the GI50 (UACC-257) was 0.298 µM and the GI50 (MALME-3M) was 0.31 µM. It also gave a GI50 (SNB-19) of 0.276 µM, a GI50 (COLO 205) of 0.791 µM and a GI50 (KM12) of 0.195 µM. The GI50 (HCT-15) was 0.345 µM, the GI50 (EKVX) was 0.309 µM and the GI50 (HCC-2998) was 0.297 µM. For the same compound, the GI50 (HOP-62) was 0.311 µM, the GI50 (CAKI-1) was 0.275 µM and the GI50 (MDA-MB231ATCC) was 0.258 µM. The GI50 (SK-MEL-5) was 0.168 µM, the GI50 (OVCAR-3) was 0.334 µM and the GI50 (MDA-MB-468) was 0.064 µM. It also gave a GI50 (DU-145) of 0.339 µM.

`Cc1ccccc1[P+](CCCCOc1cc(O)c2c(=O)cc(-c3ccccc3)oc2c1)(c1ccccc1C)c1ccccc1C` [3g] gave a GI50 (T-47D) of 0.208 µM, a GI50 (UACC-257) of 0.261 µM and a GI50 (MALME-3M) of 0.353 µM. The GI50 (SNB-19) was 0.353 µM, the GI50 (COLO 205) was 0.351 µM and the GI50 (KM12) was 0.28 µM. The GI50 (HCT-15) was 1.41 µM, the GI50 (HCC-2998) was 0.239 µM and the GI50 (HOP-62) was 0.332 µM. It also gave a GI50 (CAKI-1) of 0.309 µM, a GI50 (MDA-MB231ATCC) of 0.337 µM and a GI50 (SK-MEL-5) of 0.198 µM. It also gave a GI50 (OVCAR-3) of 0.216 µM, a GI50 (MDA-MB-468) of 0.148 µM and a GI50 (DU-145) of 0.376 µM.

With `O=c1cc(-c2ccccc2)oc2cc(OCCCC[P+](c3ccccc3)(c3ccccc3)c3ccccn3)cc(O)c12` [3h] the GI50 (T-47D) was 0.259 µM, the GI50 (UACC-257) was 0.298 µM and the GI50 (MALME-3M) was 0.594 µM. The GI50 (SNB-19) was 0.524 µM, the GI50 (COLO 205) was 1.64 µM and the GI50 (KM12) was 0.523 µM. For the same compound, the GI50 (HCT-15) was 1.58 µM, the GI50 (EKVX) was 1.12 µM and the GI50 (HCC-2998) was 0.445 µM. It also gave a GI50 (HOP-62) of 1.52 µM, a GI50 (CAKI-1) of 1.54 µM and a GI50 (MDA-MB231ATCC) of 0.906 µM. It also gave a GI50 (SK-MEL-5) of 0.278 µM, a GI50 (OVCAR-3) of 0.418 µM and a GI50 (MDA-MB-468) of 0.176 µM. It also gave a GI50 (DU-145) of 1.22 µM.
